Reference: patent US9072695B2, “Aromatase activator” (Kao Corporation, priority 2011, dated 2015)

Target: T1, aromatase (Homo sapiens, UniProt P11511)
T1 construct: host or cells: human skin fibroblasts (HDF1616)
T1 sequence (P11511 1-503): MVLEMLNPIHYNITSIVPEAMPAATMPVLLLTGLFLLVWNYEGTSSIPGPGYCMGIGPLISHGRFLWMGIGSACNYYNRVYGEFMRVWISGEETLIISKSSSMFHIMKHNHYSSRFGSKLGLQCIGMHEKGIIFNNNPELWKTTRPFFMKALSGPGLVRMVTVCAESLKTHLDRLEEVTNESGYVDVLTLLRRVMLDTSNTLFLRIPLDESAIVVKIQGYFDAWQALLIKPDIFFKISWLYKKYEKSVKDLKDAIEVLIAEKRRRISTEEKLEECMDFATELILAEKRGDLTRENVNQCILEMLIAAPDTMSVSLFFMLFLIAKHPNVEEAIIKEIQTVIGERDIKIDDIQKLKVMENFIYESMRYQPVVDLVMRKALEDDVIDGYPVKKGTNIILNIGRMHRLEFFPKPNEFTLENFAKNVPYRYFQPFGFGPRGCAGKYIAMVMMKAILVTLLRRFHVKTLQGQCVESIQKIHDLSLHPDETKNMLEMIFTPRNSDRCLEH
Experiment: Aromatase activation effect in fibroblasts derived from human skin (3H2O release from 1β-3H-androst-4-ene-3,17-dione)
Assay type: cell-based
Details: for Aromatase activity: fibroblasts (HDF1616) derived from human skin, amount added 4.65 × 10^−6 mol/L, control 6.85; for Aromatase activation effect (in words): fibroblasts derived from human skin, 4.65×10^−6 mol/L, compared with control (no addition)
Experimental: The aromatase activation effect of the compounds 1 and 2 prepared in Production Example 1 was examined with reference to Stampfer M J, Willett W C, Colditz G A, Rosner B, Speizer F E and Hennenkens C H, N. Engl. J. Med., 313, 1044-1049, 1985.
Fibroblasts (HDF1616: KURABO) derived from human skin were planted in a 24-well cell culture plate (FALCON) to culture until it became confluent. The medium was removed and 900 μL of a serum-free medium was added to the wells to culture for 24 hr. At this time, the compound 1 or 2 prepared using an aqueous 95% ethanol solution such that the final concentration was 4.65×10^−6 mol/L was added to the wells. Also, a sample in which an aqueous 95% ethanol solution was added and a sample (no addition) in which no material was added were prepared as controls.
1β-3H-androst-4-ene-3,17-dione (Perkin Elmer) which was the substrate of aromatase was added in the serum-free medium such that the concentration was 37 kBq/100 μL and added in an amount of 100 μL in each well to culture for 24 hr. 900 μL of the culture product was taken, in a 2 mL tube from one well and 1 mL of CHCl3 was added to the cultured product, which was then stirred vigorously. The cultured product was centrifuged at 15,000 rpm for 10 min to transfer the upper layer (water layer) to another tube. 200 μL of Charcoal/Dextran (which is one obtained by suspending 5 g of Charcoal, dextran coated (SIGMA) in 50 mL of H2O) was added to the upper layer, which was fairly mixed and then allowed to stand at ambient temperature for 30 min. The mixture was centrifuged at 15,000 rpm for 10 min and the supernatant was transferred to a new tube. 1 mL of […] was added to the supernatant, which was then vigorously stirred and centrifuged at 15,000 rpm for 10 min and the upper layer (water layer) was added to 5 mL of Ultima Gold (Perkin Elmer) to measure the radioactivity of ^3H by a liquid scintillation counter (Perkin Elmer Tricarb 2550). The same serum-free medium containing no cell was incubated for the same hours without adding a drug, followed by the same procedures to measure the radioactivity of ^3H and the radioactivity was subtracted from the above measured radioactivity.
1β-3H-androst-4-ene-3,17-dione releases ^3H2O by an aromatase reaction and is converted into estrogen having no radioactivity. In this experimental method, the radioactivity of released ^3H2O is detected, showing that the higher the radioactivity is, the higher the aromatase activity is.

| Structure (SMILES) | Aromatase activity [fmol/day/well] | Aromatase activation effect (in words) |
| --- | --- | --- |
| C=C1CC[C@H](C)C(C)(C)[C@@H]1CC/C(C)=C/CC[C@@]1(C)[C@H](CCCO)/C(=C(/C)C=O)CC[C@]1(C)O [Compound 2] | 22.34 | activated aromatase existing in cells |
| CC1=CC[C@H](C)C(C)(C)[C@@H]1CC/C(C)=C/CC[C@@]1(C)[C@H](CCCO)/C(=C(/C)C=O)CC[C@]1(C)O [Compound 1] | 21.68 | activated aromatase existing in cells |
